The experiment addresses PD-1/PD-L1 (Homo sapiens, UniProt Q9NZQ7). Description: TR-FRET PD-1/PD-L1 binding inhibition at the molecular level (free proteins). The following applies: Tag1-PD-L1 and Tag2-PD-1 proteins, twelve concentrations from 200 nM, 2 hours at room temperature, read-out: FRET assay (IC50). In short, it runs like this: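 HTRF read-out at 665/620 nm after 2 h at room temperature. Detection used anti-Tag1 Eu cryptate plus anti-Tag2 XL665 antibodies. Tagged PD-L1 and PD-1 proteins were pre-mixed with compound across twelve […] 1:2 dilutions starting at 200 nM.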
Background: In TR-FRET formats the signal depends on donor and acceptor labels being close together.
Sequence of PD-1/PD-L1 (Q9NZQ7 19-238 limits assumed): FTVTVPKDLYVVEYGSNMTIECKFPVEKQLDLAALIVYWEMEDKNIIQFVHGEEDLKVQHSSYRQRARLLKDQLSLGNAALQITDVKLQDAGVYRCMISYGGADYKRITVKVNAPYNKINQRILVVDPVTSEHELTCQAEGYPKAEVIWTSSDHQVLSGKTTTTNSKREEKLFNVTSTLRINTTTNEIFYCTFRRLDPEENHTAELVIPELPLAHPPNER
One may read the IC50 as the concentration that gives 50% inhibition. For `Cc1c(NC(=O)c2cc3n(n2)CCCC3NCCO)cccc1-c1cccc(Nc2nc(C(F)F)nc3cc(CN4CC[C@@H](O)C4)cnc23)c1C` (stereo partly drawn) [Compound 132, N-(3'-((2-(difluoromethyl)-7-(((R)-3-hydroxypyrrolidin-1-yl)methyl)pyrido[3,2-d]pyrimidin-4-yl)amino)-2,2'-dimethyl-[1,1'-biphenyl]-3-yl)-4-((2-hydroxyethyl)amino)-4,5,6,7-tetrahydropyrazolo[1,5-a]pyridine-2-carboxamide], the IC50 is below 10 nM.

Consider `CN(C)[C@H]1CCCn2nc(C(=O)Nc3cccc(-c4cccc(NC(=O)c5cc6n(n5)CCC[C@@H]6NCC(=O)O)c4Cl)c3Cl)cc21` [Compound 314, 2-(((S)-2-((2,2'-dichloro-3'-((S)-4-(dimethylamino)-4,5,6,7-tetrahydropyrazolo[1,5-a]pyridine-2-carboxamido)-[1,1'-biphenyl]-3-yl)carbamoyl)-4,5,6,7-tetrahydropyrazolo[1,5-a]pyridin-4-yl)amino)acetic acid], for which the IC50 was below 10 nM.

Take `CN[C@H]1CCCn2nc(C(=O)Nc3cccc(-c4cccc(NC(=O)c5ccc(CN6CC[C@@H](O)C6)cn5)c4C)c3C)cc21` [Compound 348, (S)-N-(3'-(5-(((R)-3-hydroxypyrrolidin-1-yl)methyl)picolinamido)-2,2'-dimethyl-[1,1'-biphenyl]-3-yl)-4-(methylamino)-4,5,6,7-tetrahydropyrazolo[1,5-a]pyridine-2-carboxamide]: the IC50 is below 10 nM. In the case of `Cc1c(NC(=O)c2cc3n(n2)CCCC3NC[C@@H]2CCC(=O)N2)cccc1-c1cccc(Nc2nccc3cc(CN4CC[C@@H](O)C4)cnc23)c1Cl` (stereo partly drawn) [Compound 40, N-(2'-chloro-3'-((3-(((R)-3-hydroxypyrrolidin-1-yl)methyl)-1,7-naphthyridin-8-yl)amino)-2-methyl-[1,1'-biphenyl]-3-yl)-4-((((S)-5-oxopyrrolidin-2-yl)methyl)amino)-4,5,6,7-tetrahydropyrazolo[1,5-a]pyridine-2-carboxamide] it was 10 to 100 nM; in that of `O=C(Nc1cccc(-c2cccc(Nc3nccc4cc(CN5CC[C@@H](O)C5)cnc34)c2Cl)c1Cl)c1cc2n(n1)CCN(CCO)C2` [Compound 323, (R)-N-(2,2'-dichloro-3'-((3-((3-hydroxypyrrolidin-1-yl)methyl)-1,7-naphthyridin-8-yl)amino)-[1,1-biphenyl]-3-yl)-5-(2-hydroxyethyl)-4,5,6,7-tetrahydropyrazolo[1,5-a]pyrazine-2-carboxamide], 10 to 100 nM; in that of `Cc1c(NC(=O)c2cc3n(n2)CCCC3=O)cccc1-c1cccc(NC(=O)c2cc3n(n2)CCCC3NCCO)c1C` (centres unmarked) [Compound 3, N-(2,2'-dimethyl-3'-(4-oxo-4,5,6,7-tetrahydropyrazolo[1,5-a]pyridine-2-carboxamido)-[1,1'-biphenyl]-3-yl)-4-((2-hydroxyethyl)amino)-4,5,6,7-tetrahydropyrazolo[1,5-a]pyridine-2-carboxamide], below 10 nM. Turning to `CN(C)[C@H]1CCCn2nc(C(=O)Nc3cccc(-c4cccc(NC(=O)c5cc6n(n5)CCC[C@@H]6NCCO)c4Cl)c3Cl)cc21` [Compound 313, (S)-N-(2,2'-dichloro-3'-((S)-4-((2-hydroxyethyl)amino)-4,5,6,7-tetrahydropyrazolo[1,5-a]pyridine-2-carboxamido)-[1,1'-biphenyl]-3-yl)-4-(dimethylamino)-4,5,6,7-tetrahydropyrazolo[1,5-a]pyridine-2-carboxamide], the IC50 is below 10 nM.

On to `O=C(O)CNC1CCCn2nc(C(=O)Nc3cccc(-c4cccc(NC(=O)c5ccc(CNCCO)c(F)n5)c4Cl)c3Cl)cc21` (centres unmarked) [Compound 198, 2-((2-((2,2'-dichloro-3'-(6-fluoro-5-(((2-hydroxyethyl)amino)methyl)picolinamido)-[1,1'-biphenyl]-3-yl)carbamoyl)-4,5,6,7-tetrahydropyrazolo[1,5-a]pyridin-4-yl)amino)acetic acid], for which the IC50 is below 10 nM. As for `O=C(Nc1cccc(-c2cccc(Nc3nccc4cc(CN5CC[C@@H](O)C5)cnc34)c2Cl)c1Cl)c1cc2n(n1)CCCC2N1CC[C@@H](C(=O)O)C1` (stereo partly drawn) [Compound 228, (3R)-1-(2-((2,2'-dichloro-3'-((3-(((R)-3-hydroxypyrrolidin-1-yl)methyl)-1,7-naphthyridin-8-yl)amino)-[1,1'-biphenyl]-3-yl)carbamoyl)-4,5,6,7-tetrahydropyrazolo[1,5-a]pyridin-4-yl)pyrrolidine-3-carboxylic acid], the figure is 10 to 100 nM; as for `Cc1c(NC(=O)c2cc3n(n2)CCC[C@H]3N2CCC(C(=O)O)CC2)cccc1-c1cccc(Nc2nc(C(F)(F)F)nc3cc(CN4CC[C@@H](O)C4)cnc23)c1C` (stereo in doubt) [Compound 343, 1-((R)-2-((3'-((7-(((R)-3-hydroxypyrrolidin-1-yl)methyl)-2-(trifluoromethyl)pyrido[3,2-d]pyrimidin-4-yl)amino)-2,2'-dimethyl-[1,1'-biphenyl]-3-yl)carbamoyl)-4,5,6,7-tetrahydropyrazolo[1,5-a]pyridin-4-yl)piperidine-4-carboxylic acid], 10 to 100 nM; as for `Cc1c(Nc2nccc3cc(CN4CC[C@@H](O)C4)cnc23)cccc1-c1cccc(NC(=O)c2cc3n(n2)CCCC3N2CCC(O)CC2)c1Cl` (stereo partly drawn) [Compound 34, N-(2-chloro-3'-((3-(((R)-3-hydroxypyrrolidin-1-yl)methyl)-1,7-naphthyridin-8-yl)amino)-2'-methyl-[1,1'-biphenyl]-3-yl)-4-(4-hydroxypiperidin-1-yl)-4,5,6,7-tetrahydropyrazolo[1,5-a]pyridine-2-carboxamide], 10 to 100 nM. In the case of `O=C(Nc1cccc(-c2cccc(Nc3nc(C(F)(F)F)nc4cc(CN5CC[C@@H](O)C5)cnc34)c2Cl)c1Cl)c1cc2n(n1)CCC[C@@H]2N1CC[C@@H](O)C1` [Compound 338, (S)-N-(2,2'-dichloro-3'-((7-(((R)-3-hydroxypyrrolidin-1-yl)methyl)-2-(trifluoromethyl)pyrido[3,2-d]pyrimidin-4-yl)amino)-[1,1'-biphenyl]-3-yl)-4-((R)-3-hydroxypyrrolidin-1-yl)-4,5,6,7-tetrahydropyrazolo[1,5-a]pyridine-2-carboxamide] it was 10 to 100 nM; in that of `CC(C)c1nc(Nc2cccc(-c3cccc(NC(=O)c4cc5n(n4)CCC[C@@H]5NC(C)(C)C(=O)O)c3Cl)c2Cl)c2ncccc2n1` [Compound 299, (S)-2-((2-((2,2'-dichloro-3'-((2-isopropyl-pyrido[3,2-d]pyrimidin-4-yl)amino)-[1,1'-biphenyl]-3-yl)carbamoyl)-4,5,6,7-tetrahydropyrazolo[1,5-a]pyridin-4-yl)amino)-2-methylpropanoic acid], 10 to 100 nM. As for `COc1nc(-c2cccc(-c3cccc(-c4cc5n(n4)CCCC5NCCO)c3C)c2C)cnc1CNC[C@@H]1CCC(=O)N1` (stereo partly drawn) [Compound 162, (5S)-5-((((5-(3'-(4-((2-hydroxyethyl)amino)-4,5,6,7-tetrahydropyrazolo[1,5-a]pyridin-2-yl)-2,2'-dimethyl-[1,1'-biphenyl]-3-yl)-3-methoxypyrazin-2-yl)methyl)amino)methyl)pyrrolidin-2-one], the figure is 10 to 100 nM.

Consider `O=C(Nc1cccc(-c2cccc(Nc3nc(C(F)(F)F)nc4cc(CN5CC[C@@H](O)C5)cnc34)c2Cl)c1Cl)c1cc2n(n1)CCC[C@H]2N1CCC(C(=O)O)CC1` [Compound 337], for which the IC50 lay within 10 to 100 nM. In the case of `CC(C)(NC1CCCn2nc(C(=O)Nc3cccc(-c4cccc(Nc5nc(C(F)F)nc6cc(CN7CC[C@@H](O)C7)cnc56)c4Cl)c3Cl)cc21)C(=O)O` (stereo partly drawn) [Compound 146, 2-((2-((2,2'-dichloro-3'-((2-(difluoromethyl)-7-(((R)-3-hydroxypyrrolidin-1-yl)methyl)pyrido[3,2-d]pyrimidin-4-yl)amino)-[1,1'-biphenyl]-3-yl)carbamoyl)-4,5,6,7-tetrahydropyrazolo[1,5-a]pyridin-4-yl)amino)-2-methylpropanoic acid] it was below 10 nM; in that of `CC(=O)NCCNC1CCCn2nc(C(=O)Nc3cccc(-c4cccc(-c5nc6cc(CN7CC[C@@H](C(=O)O)C7)cc(C#N)c6o5)c4C)c3C)cc21` (stereo partly drawn) [Compound 62, (3R)-1-((2-(3'-(4-((2-acetamidoethyl)amino)-4,5,6,7-tetrahydropyrazolo[1,5-a]pyridine-2-carboxamido)-2,2'-dimethyl-[1,1'-biphenyl]-3-yl)-7-cyanobenzo[d]oxazol-5-yl)methyl)pyrrolidine-3-carboxylic acid], below 10 nM.

As for `COc1nc(-c2cccc(-c3cccc(-c4cc5n(n4)CCCC5NCC(=O)O)c3Cl)c2Cl)cnc1CNC[C@@H]1CCC(=O)N1` (stereo partly drawn) [Compound 169, 2-((2-(2,2'-dichloro-3'-(6-methoxy-5-(((((S)-5-oxopyrrolidin-2-yl)methyl)amino)methyl)pyrazin-2-yl)-[1,1'-biphenyl]-3-yl)-4,5,6,7-tetrahydropyrazolo[1,5-a]pyridin-4-yl)amino)acetic acid], the IC50 was below 10 nM. As for `CC(C)c1nc(Nc2cccc(-c3cccc(NC(=O)c4cc5n(n4)CCC[C@@H]5N4CCC(C(=O)O)CC4)c3Cl)c2Cl)c2ncccc2n1` (stereo in doubt) [Compound 298, (S)-1-(2-((2,2'-dichloro-3'-((2-isopropylpyrido[3,2-d]pyrimidin-4-yl)amino)-[1,1'-biphenyl]-3-yl)carbamoyl)-4,5,6,7-tetrahydropyrazolo[1,5-a]pyridin-4-yl)piperidine-4-carboxylic acid], the figure is 10 to 100 nM; as for `Cc1c(NC(=O)c2cc3n(n2)CCCC3=O)cccc1-c1cccc(NC(=O)c2cc3n(n2)CCCC3=O)c1C` [Compound 1, N,N'-(2,2'-dimethyl-[1,1'-biphenyl]-3,3'-diyl)bis(4-oxo-4,5,6,7-tetrahydropyrazolo[1,5-a]pyridine-2-carboxamide)], below 10 nM.

The values are drawn from patent EP4755888A1 (ILAb Co., Ltd., priority 2023, dated 2025).
